In one assay the target is T1, CFTR (Homo sapiens, UniProt P13569).
T1 construct: Immunoprecipitations of endogenous proteins were performed on 500 μg of lysates from Caco-2 cells; host or cells: Caco-2, T84
Briefly: Co-immunoprecipitation of biotinylated peptides with CFTR in Caco-2 cells. The class given is cell-based.

The next assay deals with Caco-2 cells. Nature of the assay: P31-43-induced epithelial stress markers in Caco-2 cells (immunoblot). Type of assay: cell-based, human. On the procedure: Human colon adenocarcinoma-derived Caco-2 and T84 cells were obtained from the ATCC. Cells were maintained in T25 flask in Modified Eagle Medium (MEM) for Caco-2, or Ham's F12+DMEM (1:1) for T84, supplemented with 10% fetal bovine serum (FBS), 2 mM Glutamine+1% Non Essential Amino Acids (NEAA) and the antibiotics penicillin\streptomycin (100 units/ml) (all reagents from Lonza) (Luciani, A., et al. 2010. Cells were grown in Transwells (Corning, 3470 or 3460) under the normal condition (Luciani, A., et al. 2012). Briefly, 8×10^4 or 5×10^5 cells were seeded in 6.5-mm diameter or 12-mm diameter, respectively, and grown until the RT reached 800 to 1,200 Ω·cm2. Transwells with a pore size of 0.4 μm were used. Medium in both the apical and basolateral chambers was changed every other day. Cells were treated with 20 μg/ml of either α-gliadin peptide P31-43 or […]-69 or scrambled PGAV or modified P31-43 either biotin-tagged or not, for different time point (from 1 h short challenge up to 24 h). Cells were also treated with 50 or 100 μg/ml of […]-68 or PGAV peptides for 3 h. Caco-2 or T84 cells were also treated with: CFTR potentiators VX-770 (10 μM) or VX-532 (20 μM) (Selleck chemicals) or Genistein (10 μM) (Sigma-Aldrich) or in presence or absence of CFTR inhibitor172 (CFTRinh172, 20 μM) or 3-methyl-adenine (3-MA, 20 μM) (Calbiochem), Z-DON (20 nM, Zedira) or BAPTA-AM (10 μM, Calbiochem). The whole lysate or membrane fraction proteins of cell lines and mice intestine homogenates were obtained from treated and untreated cells or mice as described. The equal amount of protein were resolved by SDS-PAGE gel and blotted with antibodies against: SQSTM1, (Sigma Aldrich, 108k4767) 1:1000, PPARγ (Santa Cruz Biotechnology, sc7273) 1:500, BECN1 (Abcam, ab58878) 1:1000, CFTR clone M3A7 (Abcam, ab4067) 1:500, phospho-ERK1/2 (php42/44, Cell Signaling Technology, #91101) 1:1000, UVRAG (Santa Cruz Biotechnology sc8215) 1:1000, NHERF-1 (BD, 611161) 1:1000, EZRIN (BD, 610603) 1:1000, hVps34 (SigmaV9764) 1:300, biotin (Abcam, ab1227) 1:2000, PKAr2a (BD, 610625) 1:500, Ubiquitin (Cell Signaling clone P4D1, #3936) 1:1000, CHIP (Calbiochem PC711) 1:500, Caspase-1 p10 (M-20) (Santa Cruz Biotechnology, sc-514) 1:200, NLRP3 (Abcam, ab4207), 1:500, IDO1 (monoclonal; cv152) 1:1000^[80], used as primary antibodies. Normalization was performed by probing the membrane with anti-β-actin (Cell Signaling, #4970) 1:1000, anti-Gapdh (Sigma-Aldrich, G8795) 1:1000 and anti-flottilin (Abcam ab15148) 1:1000 antibodies. Immunoprecipitations of endogenous proteins were performed on 500 μg of lysates from Caco-2 cells. The proteins were incubated for 12-18 h at 4° C. with 10 ug\ml of specific antibody followed by the addition of Protein A/G-agarose beads for 4 h at 4° C. The beads were then washed three times with lysis buffer and Laemmli's sample buffer was added to the samples. The membranes were then blotted with: CFTR clone CF3 (Abcam, ab2784) 1:1000, TG2 (clone CUB7402; NeoMarkers) 1:1000, CHIP (Calbiochem PC711) 1:500, Ubiquitin (Cell Signaling clone P4D1 3936), isopeptide (Abcam 422) 1:1000, PKAR2 (BD 610625) 1:500. FIG. 5: a, Immunoprecipitation of TG2 protein 15 in Caco-2 cells challenged with […]-68, PGAV or P31-43 and blotted with HRP-streptavidin. b, Immunoprecipitation of CFTR protein in Caco-2 cells challenged with P31-43 in the presence of absence of the TG2 inhibitor ZDON or TG2 RNA silencing and 20 blotted with anti-isopeptide glutamime-lysine and anti-TG2 antibodies. c, Recombinant TG2 and/or NBD1 incubated in vitro with P31-43 and solved in native page in the presence or absence of Ca2+. d, Immunoprecipitation of CFTR protein and immunblot with anti-CFTR antibodies or anti-TG2 antibodies. e, Immunoprecipitation of CFTR protein and immunoblot with anti-TG2 or anti-CFTR antibodies; effects of ZDON and BAPTA-AM. f, In situ detection of TG2 activity in Caco-2 cells pulsed with Ca2+ in the presence or absence of VX-770 or Z-DON. […]
(In general: Immunoblotting shows a protein as a band on a membrane.)

T1 sequence (P13569 whole entry): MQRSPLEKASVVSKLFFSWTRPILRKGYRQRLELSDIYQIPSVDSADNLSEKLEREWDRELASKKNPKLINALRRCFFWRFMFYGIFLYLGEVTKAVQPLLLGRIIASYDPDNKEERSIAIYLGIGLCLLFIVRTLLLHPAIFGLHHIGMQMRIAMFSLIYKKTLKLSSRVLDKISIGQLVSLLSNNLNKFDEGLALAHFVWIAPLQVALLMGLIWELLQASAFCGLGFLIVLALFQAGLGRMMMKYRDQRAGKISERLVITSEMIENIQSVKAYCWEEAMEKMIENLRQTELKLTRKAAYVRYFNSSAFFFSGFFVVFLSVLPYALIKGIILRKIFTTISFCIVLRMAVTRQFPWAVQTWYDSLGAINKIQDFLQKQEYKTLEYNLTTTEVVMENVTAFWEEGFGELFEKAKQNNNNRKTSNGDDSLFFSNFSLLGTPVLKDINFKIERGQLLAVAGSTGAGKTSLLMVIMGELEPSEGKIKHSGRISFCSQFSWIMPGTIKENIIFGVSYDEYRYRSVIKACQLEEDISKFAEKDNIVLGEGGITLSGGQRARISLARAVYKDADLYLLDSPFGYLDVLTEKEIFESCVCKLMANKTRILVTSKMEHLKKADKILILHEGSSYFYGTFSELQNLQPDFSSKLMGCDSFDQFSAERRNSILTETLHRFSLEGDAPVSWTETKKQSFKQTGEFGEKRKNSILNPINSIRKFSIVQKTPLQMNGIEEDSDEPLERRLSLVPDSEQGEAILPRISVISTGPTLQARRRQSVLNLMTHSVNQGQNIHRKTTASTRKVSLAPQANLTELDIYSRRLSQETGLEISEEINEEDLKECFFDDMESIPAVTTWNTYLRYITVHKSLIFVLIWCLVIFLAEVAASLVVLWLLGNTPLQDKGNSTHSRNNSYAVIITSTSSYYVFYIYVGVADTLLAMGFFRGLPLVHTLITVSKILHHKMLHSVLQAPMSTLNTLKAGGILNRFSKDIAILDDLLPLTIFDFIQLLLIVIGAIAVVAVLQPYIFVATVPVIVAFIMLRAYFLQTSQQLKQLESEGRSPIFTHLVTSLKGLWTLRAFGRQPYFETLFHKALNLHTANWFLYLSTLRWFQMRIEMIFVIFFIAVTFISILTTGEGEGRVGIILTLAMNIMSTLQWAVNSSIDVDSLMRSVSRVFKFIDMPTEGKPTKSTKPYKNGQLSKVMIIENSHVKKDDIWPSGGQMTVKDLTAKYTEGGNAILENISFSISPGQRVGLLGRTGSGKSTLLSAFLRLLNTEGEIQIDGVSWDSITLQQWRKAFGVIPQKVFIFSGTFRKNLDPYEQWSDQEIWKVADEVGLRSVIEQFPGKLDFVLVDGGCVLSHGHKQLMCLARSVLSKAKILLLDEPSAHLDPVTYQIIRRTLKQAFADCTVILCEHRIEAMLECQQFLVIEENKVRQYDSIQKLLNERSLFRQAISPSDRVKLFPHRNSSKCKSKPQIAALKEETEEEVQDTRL
Experimental for CFTR: Human colon adenocarcinoma-derived Caco-2 and T84 cells were obtained from the ATCC. Cells were maintained in T25 flask in Modified Eagle Medium (MEM) for Caco-2, or Ham's F12+DMEM (1:1) for T84, supplemented with 10% fetal bovine serum (FBS), 2 mM Glutamine+1% Non Essential Amino Acids (NEAA) and the antibiotics penicillin\streptomycin (100 units/ml) (all reagents from Lonza) (Luciani, A., et al. 2010. Cells were grown in Transwells (Corning, 3470 or 3460) under the normal condition (Luciani, A., et al. 2012). Briefly, 8×10^4 or 5×10^5 cells were seeded in 6.5-mm diameter or 12-mm diameter, respectively, and grown until the RT reached 800 to 1,200 Ω·cm2. Transwells with a pore size of 0.4 μm were used. Medium in both the apical and basolateral chambers was changed every other day. […] Cells were also treated with 50 or 100 μg/ml of P57-68 or PGAV peptides for 3 h. Caco-2 or T84 cells were also treated with: CFTR potentiators VX-770 (10 μM) or VX-532 (20 μM) (Selleck chemicals) or Genistein (10 μM) (Sigma-Aldrich) or in presence or absence of CFTR inhibitor172 (CFTRinh172, 20 μM) or 3-methyl-adenine (3-MA, 20 μM) (Calbiochem), Z-DON (20 nM, Zedira) or BAPTA-AM (10 μM, Calbiochem).
For detection of complex with biotnylated-P31-43 or immune-complex of glutamime-lysine bonds, the beads were resolved in non-reducing and non-denaturating conditions, and then blotted with Streptavidin-HRP (Sigma 52438) 1:3000 or anti-biotin (Abcam ab2103) 1:2500 and anti-isopeptide (Abcam 422) 1:1000.
The separation of endosomal fractions was performed as described^9 from treated and untreated cells. Protein of endosomal fraction were resolved by SDS-Page and blotted with primary antibodies against Rab-5(Abcam 18211) 1:500, Rab-7(Abcam 77993) 1:500, EEA-1 (Abcam 2900) 1:500, TG2 or CFTR. EEA-1 was used as early endosome marker. For detection of complex with biotnylated-P31-43, the beads were resolved in non-reducing and non-denaturating conditions, and then blotted with Streptavidin-HRP (Sigma S2438) 1:3000 or anti-biotin (Abcam ab2103) 1:2500.

For “α-gliadin peptide LGQQQPFPPQQPY (SEQ ID 1), induces an enterocyte stress response (P31-43 sequence of alpha-gliadin)”, the “presence in CFTR immunoprecipitates from early endosomal protein fractions” value in the assay with CFTR is listed as “revealed the presence of biotinylated P31-43”. Further, the “interaction (co-immunoprecipitation) with CFTR” value in the assay with CFTR (1 h with biotinylated peptides) was “co-immunoprecipitated with CFTR”. The “co-immunoprecipitation with CFTR in clathrin+ EEA1− plasma membrane protein fractions” value with CFTR (after 5 min incubation) is given as “co-immunoprecipitated”. Also, in the assay on Caco-2 cells, the “TG2-mediated cross-linking of PKAr2a” value is reported as “stimulated TG2-mediated cross-linking” and the “abundance of phosphorylated PKA protein” value is given as “decrease in the abundance of phosphorylated PKA protein”.

As to `CC(C)(C)c1cc(C(C)(C)C)c(NC(=O)c2c[nH]c3ccccc3c2=O)cc1O` [VX-770, N-(2,4-di-tert-butyl-5-hydroxyphenyl)-4-oxo-1,4-dihydroquinoline-3-carboxamide], the “effect on co-immunoprecipitation between P31-43 and CFTR” value at CFTR is “prevented the co-immunoprecipitation between P31-43 and CFTR”. Also, in the assay on Caco-2 cells, the “effect on P31-43-induced PKAr2a cross-linking and phospho-PKA decrease” value is on record as “counteracted all these TG2-mediated effects of P31-43”; the “protection from P31-43-induced downregulation of PPARγ” value is given as “protected”; the “protection from P31-43-induced phosphorylation of ERK-1/2” value is listed as “protected”; the “protection from P31-43-induced upregulation of HSP70 expression” value is listed as “protected”.

(Values after patent US20200206198A1, “CFTR CHANNEL ACTIVATOR FOR USE IN THE TREATMENT AND/OR PREVENTION OF GLUTEN SENSITIVITY CONDITIONS” (priority 2017, published 2020).)
